Test results: article PMC11157491, “Novel Alaninamide Derivatives with Drug-like Potential for Development as Antiseizure and Antinociceptive Therapies—In Vitro and In Vivo Characterization” (ACS Chemical Neuroscience, 2024)
Read-outs that look alike come from different tables or passages of the source.

Columns and labels:
[1] = tested on: fast voltage-gated sodium channels in rat prefrontal cortex pyramidal neurons; experiment: Patch-clamp recording of fast sodium currents; type: cell-based; conditions: control = 1.0
Description: Due to the relatively high concentration of compounds used in the in vitro assays, as well as brain concentration of 28 (>10 μM after 25 mg/kg dose administration) determined in the pharmacokinetic studies (see Section 2.10), it seems unlikely that compounds described herein act by any of mechanisms tested in the aforementioned binding and functional studies. […] Thus, in further in vitro assays, 28 was also evaluated for its influence on fast voltage-gated sodium channels in rat prefrontal cortex pyramidal neurons using the patch-clamp technique (maximal currents were evoked by rectangular voltage steps to −10 mV).
The averaged, maximal normalized amplitudes of voltage-gated sodium currents were 1.0 in control, 0.72 ± 0.06 after application of 28, and 0.86 ± 0.05 after wash-out (control vs 28p < 0.05).
Patch-clamp studies in prefrontal cortex pyramidal neurons. The methodology of slice preparation, preparation of dispersed cortical neurons, and sodium current recording technique were the same as in our previous study.[75]

mice = experiment: Formalin test; type: in vivo; conditions: Mus musculus, ip, 30 min before test
Source text: One of the most useful screening methods for testing clinically relevant molecules is the formalin model. The local injection of formalin solution induces two distinct phases of the nociceptive response, which are associated with immediate activation of nociceptors (phase I) and sensitization of spinal reflex circuits (phase II).[41] It is important to note that during the second phase, there is also an inflammatory response to tissue damage. […] Thus, this model has been successfully used to assess the analgesic efficacy of a variety of compounds, including ASMs.[42]
The experimental groups consisted of 10 adult male Albino Swiss mice (CD-1, 18–25 g). Each animal was tested only once. Immediately after the assay, the animals were sacrificed by cervical dislocation. Behavioral measurements were observed by trained observers. […] The in vivo procedure for the model of capsaicin-induced nociception was previously reported;[67] the animals were pretreated with vehicle (10 mL/kg, negative control), and the dose–response of investigated compounds was evaluated at 12.5, 25, and 50 mg/kg.
Data are presented as means ± standard error of the mean (SEM). […] Statistically significant differences between groups were calculated using one-way analysis of variance (ANOVA) and the post hoc Dunnett’s multiple comparison test or two-way analysis of variance (ANOVA). […]

[2] = target: T1, Cav2.2 calcium ion channel (Rattus norvegicus, UniProt Q02294); experiment: Cav2.2 binding (antagonist radioligand); conditions: rat cerebral cortex, read-out: % inhibition of control specific binding
T1 construct: rat cerebral cortex; tissue Eurofins (contract assay); host or cells: rat cerebral cortex
Description: (§1) Binding/functional studies were carried out commercially in Eurofins Laboratories (Poitiers, France) and Eurofins Panlabs Discovery Services Taiwan, Ltd. (New Taipei City, Taiwan) using testing procedures that were reported previously (for details, see Table S2).
(§2) Table S2. Radioligand binding and functional assays. […]
Cav2.2 calcium ion channel (antagonist radioligand) […]
(§3) Potassium channel (hERG) […]
(§4) Assays were performed commercially in Eurofins Laboratories ( Poitiers, France) or Eurofins Panlabs Discovery Services
(§5) Taiwan, Ltd. (New Taipei City, Taiwan).

mature BDNF (mBDNF) = experiment: mBDNF and proNGF expression in hippocampus and cortex of PTZ-kindled mice (western blot); type: in vivo; conditions: PTZ-kindled animals, prolonged treatment
Description: In addition, we determined the expression of the nerve growth factor (NGF), which can also be implicated in kindling progression, by enhancing mossy fiber sprouting.[40] However, no changes in the NGF protein expression in the hippocampus and cortex of kindled animals were found (Figure 5C,D).
The expression of mBDNF and proNGF in the mouse hippocampus and cortex was evaluated by the western blot technique. Half of mouse brain structures, cortex and hippocampus, were weighted and homogenized at the ratio of 9 μL/mg in 2% sodium dodecyl sulfate (SDS) supplemented with a cocktail of protease (Thermo Scientific) and phosphatese inhibitors (Sigma-Aldrich) using a bead homogenizer (Bead Ruptor Elite, Omni International). Then, the samples were denatured at 95 °C for 10 min and centrifuged at 10,000g for 10 min at 4 °C. The total protein concentration in the obtained supernatants was determined using a PierceTM BCA Protein Assay Kit (Thermo Scientific, Waltham, MA). After setting the proper protein concentration, the samples were mixed with loading buffer (containing 10% 2-mercaptoethanol) at a ratio of 3:1 and heated for 10 min at 95 °C. Equal amounts of the protein (45 μg/lane) were loaded on Any kD precast polyacrylamide gels (Criterion, TGX Stain-Free gel, Bio-Rad, Hercules, CA) and subjected to electrophoresis (170 V, 60 min). Separated proteins were transferred to the polyvinylidene difluoride (PVDF) membrane (Bio-Rad, Hercules, CA) and were blocked in a 5% solution of albumin in TBST. […] The proteins were detected using the electrochemiluminescence (ECL) method (Western Bright Quantum, Advansta Inc., San Jose, CA). The chemiluminescence of the membranes was imaged with the G-Box Imaging System (Syngene, Frederick, MD), and the protein expression was analyzed with Gene Tools software (Syngene, Frederick, MD) and expressed as relative to the total protein content in the membrane lane.
Changes in the relative expression of tested proteins were analyzed using one-way ANOVA with Tukey’s post hoc test.

NMDA = NMDA binding (antagonist radioligand); conditions: 100 μM, rat cerebral cortex
Description: as §1
Table S2. Radioligand binding and functional assays.
NMDA (antagonist radioligand) […]
as §3, §4, §5

GABA transaminase = target: T2, GABA transaminase (Rattus norvegicus, UniProt P50554); experiment: GABA transaminase assay; type: biochemical; conditions: rat brain, read-out: % inhibition of control specific binding
T2 construct: Eurofins (contract assay)
Description: as §1, §2, §3, §4, §5

T2 sequence (P50554 28-500): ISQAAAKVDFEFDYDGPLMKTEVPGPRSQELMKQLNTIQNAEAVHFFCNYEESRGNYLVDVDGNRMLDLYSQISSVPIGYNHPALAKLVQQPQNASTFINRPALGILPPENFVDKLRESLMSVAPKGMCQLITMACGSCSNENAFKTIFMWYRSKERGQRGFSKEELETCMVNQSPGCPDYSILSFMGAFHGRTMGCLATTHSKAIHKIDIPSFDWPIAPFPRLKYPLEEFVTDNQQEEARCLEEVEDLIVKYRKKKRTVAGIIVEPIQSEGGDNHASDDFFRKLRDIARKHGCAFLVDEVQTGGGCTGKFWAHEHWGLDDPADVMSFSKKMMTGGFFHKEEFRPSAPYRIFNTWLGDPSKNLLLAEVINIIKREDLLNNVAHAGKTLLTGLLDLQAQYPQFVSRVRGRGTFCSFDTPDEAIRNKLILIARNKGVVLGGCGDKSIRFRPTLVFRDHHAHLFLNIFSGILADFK
T1 sequence (Q02294 whole entry): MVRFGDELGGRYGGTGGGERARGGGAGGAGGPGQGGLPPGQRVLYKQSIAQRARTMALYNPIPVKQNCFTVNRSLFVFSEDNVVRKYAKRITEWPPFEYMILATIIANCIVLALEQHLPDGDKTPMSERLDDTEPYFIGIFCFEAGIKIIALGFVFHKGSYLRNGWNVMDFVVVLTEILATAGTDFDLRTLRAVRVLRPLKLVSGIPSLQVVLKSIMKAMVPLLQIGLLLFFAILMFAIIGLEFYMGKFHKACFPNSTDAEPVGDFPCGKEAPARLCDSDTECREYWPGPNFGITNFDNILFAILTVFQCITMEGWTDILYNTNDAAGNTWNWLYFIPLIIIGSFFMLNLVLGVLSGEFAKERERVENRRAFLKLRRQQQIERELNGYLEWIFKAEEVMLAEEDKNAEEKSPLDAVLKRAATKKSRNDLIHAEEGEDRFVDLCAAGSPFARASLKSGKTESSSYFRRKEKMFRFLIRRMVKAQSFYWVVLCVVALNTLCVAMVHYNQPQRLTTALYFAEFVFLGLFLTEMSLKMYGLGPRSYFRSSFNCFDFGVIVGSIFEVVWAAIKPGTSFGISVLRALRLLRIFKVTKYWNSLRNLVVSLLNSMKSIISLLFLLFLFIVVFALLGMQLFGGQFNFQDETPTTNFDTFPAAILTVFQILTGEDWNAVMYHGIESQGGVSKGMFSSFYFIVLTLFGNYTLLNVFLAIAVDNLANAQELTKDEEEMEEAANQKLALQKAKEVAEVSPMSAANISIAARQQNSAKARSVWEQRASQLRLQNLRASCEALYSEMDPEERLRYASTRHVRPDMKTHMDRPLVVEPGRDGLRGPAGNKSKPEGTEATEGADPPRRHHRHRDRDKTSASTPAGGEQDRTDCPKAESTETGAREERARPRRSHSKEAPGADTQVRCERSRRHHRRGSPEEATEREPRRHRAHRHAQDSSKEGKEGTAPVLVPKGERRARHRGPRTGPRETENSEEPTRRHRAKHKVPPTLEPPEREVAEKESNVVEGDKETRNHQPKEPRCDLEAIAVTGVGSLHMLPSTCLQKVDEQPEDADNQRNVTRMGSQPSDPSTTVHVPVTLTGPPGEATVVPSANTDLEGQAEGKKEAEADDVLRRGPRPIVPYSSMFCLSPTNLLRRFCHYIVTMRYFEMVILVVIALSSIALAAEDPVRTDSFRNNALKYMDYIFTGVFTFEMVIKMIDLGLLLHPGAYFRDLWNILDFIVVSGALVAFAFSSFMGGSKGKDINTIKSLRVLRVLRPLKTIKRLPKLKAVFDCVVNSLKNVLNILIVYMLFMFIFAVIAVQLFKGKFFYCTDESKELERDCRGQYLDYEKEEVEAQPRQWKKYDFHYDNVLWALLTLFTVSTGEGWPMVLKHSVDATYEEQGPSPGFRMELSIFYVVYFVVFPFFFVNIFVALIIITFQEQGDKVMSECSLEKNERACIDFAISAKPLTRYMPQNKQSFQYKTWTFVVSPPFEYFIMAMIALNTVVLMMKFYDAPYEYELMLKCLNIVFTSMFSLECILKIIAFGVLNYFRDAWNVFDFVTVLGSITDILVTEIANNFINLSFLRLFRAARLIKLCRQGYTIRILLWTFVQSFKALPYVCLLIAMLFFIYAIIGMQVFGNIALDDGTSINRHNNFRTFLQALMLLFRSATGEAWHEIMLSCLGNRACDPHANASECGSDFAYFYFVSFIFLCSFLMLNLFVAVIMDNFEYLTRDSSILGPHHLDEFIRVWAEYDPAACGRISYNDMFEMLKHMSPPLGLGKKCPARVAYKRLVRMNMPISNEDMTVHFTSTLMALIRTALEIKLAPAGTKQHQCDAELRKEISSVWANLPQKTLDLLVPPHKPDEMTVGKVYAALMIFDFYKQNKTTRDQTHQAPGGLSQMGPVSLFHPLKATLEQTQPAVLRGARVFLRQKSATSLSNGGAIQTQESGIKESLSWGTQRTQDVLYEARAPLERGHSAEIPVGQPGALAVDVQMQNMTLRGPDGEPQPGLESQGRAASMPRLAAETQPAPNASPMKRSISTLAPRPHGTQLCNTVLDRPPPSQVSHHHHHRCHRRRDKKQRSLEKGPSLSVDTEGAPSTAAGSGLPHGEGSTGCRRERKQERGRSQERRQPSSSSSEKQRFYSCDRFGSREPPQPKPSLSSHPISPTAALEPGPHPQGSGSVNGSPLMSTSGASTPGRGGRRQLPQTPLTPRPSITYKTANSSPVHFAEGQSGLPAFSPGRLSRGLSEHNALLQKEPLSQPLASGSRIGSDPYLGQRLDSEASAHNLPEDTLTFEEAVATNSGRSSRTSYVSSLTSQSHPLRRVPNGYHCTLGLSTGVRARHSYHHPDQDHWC
T1 sequence (P54287 whole entry partner): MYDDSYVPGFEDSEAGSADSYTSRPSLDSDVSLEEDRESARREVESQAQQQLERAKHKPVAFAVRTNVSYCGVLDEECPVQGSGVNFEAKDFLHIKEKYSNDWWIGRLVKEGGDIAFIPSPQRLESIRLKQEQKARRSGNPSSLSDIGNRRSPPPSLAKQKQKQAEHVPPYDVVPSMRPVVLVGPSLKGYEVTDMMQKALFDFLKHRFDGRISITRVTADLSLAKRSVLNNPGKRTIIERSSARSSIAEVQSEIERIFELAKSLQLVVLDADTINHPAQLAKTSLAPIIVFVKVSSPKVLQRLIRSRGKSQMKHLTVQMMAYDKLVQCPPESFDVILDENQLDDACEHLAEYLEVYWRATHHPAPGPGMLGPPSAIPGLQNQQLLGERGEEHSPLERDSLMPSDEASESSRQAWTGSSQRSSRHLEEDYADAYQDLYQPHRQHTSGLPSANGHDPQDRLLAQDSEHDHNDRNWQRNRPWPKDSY
T1 sequence (P54290 25-944 partner limits assumed): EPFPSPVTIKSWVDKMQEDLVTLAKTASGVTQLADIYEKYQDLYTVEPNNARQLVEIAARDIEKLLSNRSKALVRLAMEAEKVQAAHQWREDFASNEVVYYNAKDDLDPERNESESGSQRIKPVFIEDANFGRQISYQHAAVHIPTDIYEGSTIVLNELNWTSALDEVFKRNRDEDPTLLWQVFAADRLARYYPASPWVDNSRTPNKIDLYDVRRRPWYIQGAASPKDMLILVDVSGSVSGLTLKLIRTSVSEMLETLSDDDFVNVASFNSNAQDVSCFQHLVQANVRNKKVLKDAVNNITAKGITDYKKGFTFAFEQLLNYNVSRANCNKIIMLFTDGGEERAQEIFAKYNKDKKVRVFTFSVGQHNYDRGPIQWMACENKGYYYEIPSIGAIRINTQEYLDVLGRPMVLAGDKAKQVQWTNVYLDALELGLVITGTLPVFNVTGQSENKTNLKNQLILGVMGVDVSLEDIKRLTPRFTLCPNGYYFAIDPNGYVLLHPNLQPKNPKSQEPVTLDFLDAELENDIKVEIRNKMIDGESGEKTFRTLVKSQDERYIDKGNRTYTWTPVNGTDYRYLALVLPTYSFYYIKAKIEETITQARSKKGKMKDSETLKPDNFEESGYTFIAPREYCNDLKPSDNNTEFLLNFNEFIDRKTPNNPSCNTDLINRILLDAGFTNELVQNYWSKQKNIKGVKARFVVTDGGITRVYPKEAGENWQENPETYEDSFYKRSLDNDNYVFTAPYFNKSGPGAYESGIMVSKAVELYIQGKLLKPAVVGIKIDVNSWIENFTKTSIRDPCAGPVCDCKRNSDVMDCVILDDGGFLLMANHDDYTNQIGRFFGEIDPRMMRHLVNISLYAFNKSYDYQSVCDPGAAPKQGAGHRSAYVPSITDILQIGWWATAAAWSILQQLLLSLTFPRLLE
T1 sequence (P54290 945-1091 partner limits assumed): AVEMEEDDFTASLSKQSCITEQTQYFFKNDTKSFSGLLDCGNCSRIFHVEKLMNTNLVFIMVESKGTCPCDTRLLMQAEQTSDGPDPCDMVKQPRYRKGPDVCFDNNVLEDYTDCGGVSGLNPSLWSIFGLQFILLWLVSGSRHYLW

Structure (SMILES): CC(=O)NC(C)C(=O)N1CCN(c2cccc(OC(F)(F)F)c2)CC1 (stereo not drawn) [Compound 28, N-(1-oxo-1-(4-(3-(Trifluoromethoxy)phenyl)piperazin-1-yl)propan-2-yl)acetamide]
- averaged maximal normalized amplitude of voltage-gated sodium currents ([1]; 10 μM, after application): 0.72 ± 0.06
- averaged maximal normalized amplitude of voltage-gated sodium currents ([1]; after wash-out): 0.86 ± 0.05
- ED50 (mice; read-out: ED50 formalin test phase I (acute phase)): 34.3 mg/kg
- ED50 (mice; read-out: ED50 formalin test phase II (late phase)): 22 mg/kg
- inhibition at 100 µM [2]: 3.6%
- mBDNF expression in the cortex (mature BDNF (mBDNF)): decreased the expression of mBDNF
- mBDNF expression in the hippocampus (mature BDNF (mBDNF)): not in the hippocampus
- % inhibition of control specific binding (NMDA): 5.0%
- inhibition at 100 µM (GABA transaminase): -1.9%
